Measurements: patent publication US11413360B2, “Dual mode radiotracer and—therapeutics” (priority 2017, dated 2022)
Where two headings read alike, the source gives them in different places. Values belong to the compound of their own block, whether it stands above or below them.

Columns and labels:
Human Serum Albumin [1] = biological target: T1, Human Serum Albumin (Homo sapiens, UniProt P02768); assay: Literature HSA binding of reference substances (Yamazaki et al.) for HSA-column calibration; conditions: logarithmic K of human serum albumin binding
Experimental: The mobile phase (A: NH4OAc, 50 mM in water, pH 7 and B: isopropanol) was freshly prepared for each experiment and only used for one day. The column was kept at room temperature and each run was stopped after detection of the signal to reduce the acquisition time. All substances were dissolved in a 0.5 mg/ml concentration in 50% 2-propanol and 50% 50 mM pH 6.9 ammonium acetate buffer. […] All nine reference substances (see Table 1) were injected consecutively to establish a non-linear regression with OriginPro 2016G; see FIG. 1.
HSA literature value of human serum albumin binding in [%]; Log K HAS logarithmic K of human serum albumin binding.

Human Serum Albumin [2] = biological target: T1, Human Serum Albumin; conditions: literature value of human serum albumin binding; cited from earlier work
LNCaP cells = assay: Internalization of radiolabelled ligands into LNCaP cells; type: cell-based; conditions: 1 hour, % of reference ligand ([125I]I-BA)KuE
Experimental: Subsequent to the removal of the culture medium, the cells were washed once with 500 μL DMEM-F12 (5% BSA) and left to equilibrate for at least 15 min at 37° C. in 200 μL DMEM-F12 (5% BSA). Each well was treated with either 25 μL of either DMEM-F12 (5% BSA) or a 100 μM PMPA solution for blockade. […] The experiment was terminated by placing the 24-well plate on ice for 3 min and consecutive removal of the medium. Each well was rinsed with 250 μL HBSS and the fractions from these first two steps combined, representing the amount of free radioligand. Removal of surface bound activity was accomplished by incubation of the cells with 250 μL of ice-cold PMPA (10 μM in PBS) solution for 5 min and rinsed again with another 250 μL of ice-cold PBS. The internalized activity was determined by incubation of the cells in 250 μL 1 M NaOH and the combination with the fraction of a subsequent wash step with 250 μL 1.0 M NaOH. Each experiment (control and blockade) was performed in triplicate. Free, surface bound and internalized activity was quantified in a γ-counter. […] Data were corrected for non-specific internalization and normalized to the specific-internalization observed for the radioiodinated reference compound.

[3] = Octanol-water partition coefficient (log D) of radiolabelled ligands; type: physicochemical; conditions: n = 6
Experimental: Approximately 1 MBq of the labelled tracer was dissolved in 1 mL of a 1:1 mixture (by volumes) of phosphate buffered saline (PBS, pH 7.4) and n-octanol in an Eppendorf tube. After vigorous mixing of the suspension for 3 minutes at room temperature, the vial was centrifuged at 15000 g for 3 minutes (Biofuge 15, Heraus Sepatech, Osterode, Germany) and 100 μL aliquots of both layers were measured in a gamma counter. The experiment was repeated at least six times.

PSMA = biological target: T2, PSMA (Homo sapiens, UniProt Q04609); assay: Determination of PSMA affinity (IC50), competition with ([125I]I-BA)KuE on LNCaP cells; type: binding; conditions: ([125I]I-BA)KuE 0.2 nM
T2 construct: endogenous in cells; host or cells: LNCaP cells
Experimental: After removal of the culture medium, the cells were treated once with 500 μL of HBSS (Hank's balanced salt solution, Biochrom, Berlin, Germany, with addition of 1% bovine serum albumin (BSA)) and left 15 min on ice for equilibration in 200 μL HBSS (1% BSA). […] Quantification of bound and free radioligand was accomplished in a γ-counter.

Human Serum Albumin [4] = biological target: T1, Human Serum Albumin; assay: HSA binding on Chiralpak HSA column; type: in vitro ADME
[5] = cited from earlier work
[6] = pH 7.4, 68Ga-natF-L, n-octanol/PBS pH 7.4
[7] = IC50, natF-L (uncomplexed), 1 h, 4° C., mean ± SD
[8] = IC50, natGa-natF-L, 1 h, 4° C., mean ± SD
[9] = 68Ga-natF-L, 0.5 nM, 37° C., mean ± SD
[10] = pH 7.4, 18F-L, n-octanol/PBS pH 7.4
[11] = 18F-L, 0.5 nM, 37° C., mean ± SD
[12] = 177Lu-natF-L, 0.5 nM, 37° C., mean ± SD
[13] = n-octanol/PBS, pH 7.4, 177Lu-natF-L
[14] = natLu-natF-L, 1 h, 4° C., mean ± SD, read-out: IC50

T1 sequence (P02768 25-609): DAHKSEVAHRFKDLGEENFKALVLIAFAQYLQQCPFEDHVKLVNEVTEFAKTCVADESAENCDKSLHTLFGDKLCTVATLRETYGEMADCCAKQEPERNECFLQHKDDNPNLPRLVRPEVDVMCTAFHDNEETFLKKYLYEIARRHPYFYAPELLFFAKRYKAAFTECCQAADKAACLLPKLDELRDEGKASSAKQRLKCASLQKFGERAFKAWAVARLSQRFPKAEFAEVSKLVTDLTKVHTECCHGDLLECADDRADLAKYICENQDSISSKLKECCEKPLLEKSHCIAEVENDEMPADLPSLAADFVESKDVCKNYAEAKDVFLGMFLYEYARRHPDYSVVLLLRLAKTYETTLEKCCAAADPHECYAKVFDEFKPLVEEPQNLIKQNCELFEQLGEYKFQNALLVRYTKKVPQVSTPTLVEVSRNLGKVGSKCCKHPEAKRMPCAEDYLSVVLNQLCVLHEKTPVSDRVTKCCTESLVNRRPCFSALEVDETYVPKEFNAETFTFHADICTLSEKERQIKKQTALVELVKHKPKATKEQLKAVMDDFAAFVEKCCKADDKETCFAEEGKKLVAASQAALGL
T2 sequence (Q04609 whole entry): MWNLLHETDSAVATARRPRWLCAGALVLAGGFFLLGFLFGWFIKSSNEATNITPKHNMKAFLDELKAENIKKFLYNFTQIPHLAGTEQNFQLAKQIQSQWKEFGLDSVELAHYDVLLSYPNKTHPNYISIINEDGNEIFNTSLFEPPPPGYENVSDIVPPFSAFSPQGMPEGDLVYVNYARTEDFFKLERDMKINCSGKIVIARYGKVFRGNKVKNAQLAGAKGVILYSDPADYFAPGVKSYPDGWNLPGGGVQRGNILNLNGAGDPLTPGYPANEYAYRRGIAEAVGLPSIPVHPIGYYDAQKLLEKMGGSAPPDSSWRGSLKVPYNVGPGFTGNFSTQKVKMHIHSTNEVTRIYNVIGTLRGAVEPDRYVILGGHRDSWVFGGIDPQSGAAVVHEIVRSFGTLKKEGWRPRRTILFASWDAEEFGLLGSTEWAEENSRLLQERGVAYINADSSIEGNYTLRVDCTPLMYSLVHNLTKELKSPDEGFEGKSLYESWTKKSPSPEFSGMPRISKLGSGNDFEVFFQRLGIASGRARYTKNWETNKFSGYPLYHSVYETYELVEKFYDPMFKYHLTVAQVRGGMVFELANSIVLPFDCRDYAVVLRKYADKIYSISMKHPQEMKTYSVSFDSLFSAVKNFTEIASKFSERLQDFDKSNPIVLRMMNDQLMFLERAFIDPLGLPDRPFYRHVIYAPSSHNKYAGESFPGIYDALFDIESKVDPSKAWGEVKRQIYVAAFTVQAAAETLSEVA

Compound: Nc1ccccc1 [Aniline]
Log K HSA (Human Serum Albumin [1]): −0.79 | Lit. HSA % (Human Serum Albumin [2]): 14.06%

Compound: O=C(O)c1ccccc1 [Benzoic Acid]
Lit. HSA % (Human Serum Albumin [2]): 34.27%

Compound: O=C(O)CC[C@H](NC(=O)N[C@@H](CCCCNC(=O)c1ccc(F)nc1)C(=O)O)C(=O)O [DCFPyL, reference compound]
Internalization (LNCaP cells; references): DCFPyL 118 ± 5%

Log K HSA (Human Serum Albumin [1]): 1.69
Compound: COc1ccc(Cl)cc1C(=O)NCCc1ccc(S(=O)(=O)NC(=O)NC2CCCCC2)cc1 [Glibenclamide]
Lit. HSA % (Human Serum Albumin [2]): 99.00%

Compound: Oc1ccccc1 [Phenol]
Log K HSA (Human Serum Albumin [1]): −0.59 | Lit. HSA % (Human Serum Albumin [2]): 20.69%

Compound: CCCN(CCC)S(=O)(=O)c1ccc(C(=O)O)cc1 [Probenecid]
Lit. HSA % (Human Serum Albumin [2]): 95.00%

Compound: CC(C)(C)[Si](F)(c1ccc(C(=O)NC[C@@H](NC(=O)CCC(C(=O)O)N2CCN(CC(=O)O)CCN(CC(=O)O)CCN(CC(=O)O)CC2)C(=O)N[C@H](CCCCNC(=O)CCCCCCC(=O)NCCCC[C@H](NC(=O)N[C@@H](CCC(=O)O)C(=O)O)C(=O)O)C(=O)O)cc1)C(C)(C)C (some centres unmarked) [ligand 5, PSMA-SIFA1]
logD [3, 6]: -2.75 ± 0.07 | IC50 (PSMA; [7]): 6.4 ± 0.2 nM | IC50 (PSMA; [8]): 7.3 ± 0.2 nM | Internalization (LNCaP cells; [9]): 33.0 ± 2.1%

Compound: CC(C)(C)[Si](F)(c1ccc(C(=O)NC[C@@H](C(=O)N[C@H](CCCCNC(=O)CCCCCCC(=O)NCCCC[C@H](NC(=O)N[C@@H](CCC(=O)O)C(=O)O)C(=O)O)C(=O)O)n2cc(CNC(=O)CCP(=O)(O)CN3CCN(CP(=O)(O)CCC(=O)O)CCN(CP(=O)(O)CCC(=O)O)CC3)nn2)cc1)C(C)(C)C [ligand 6, PSMA-SIFA2]
logD [3, 6]: -3 ± 0.09 | IC50 (PSMA; [7]): 8.5 ± 1.7 nM | IC50 (PSMA; [8]): 10.8 ± 2.5 nM | Internalization (LNCaP cells; [9]): 43.0 ± 3.4%

Compound: CC(C)(C)[Si](F)(c1ccc(C(=O)N[C@H](CNC(=O)CCC(C(=O)O)N2CCN(CC(=O)O)CCN(CC(=O)O)CCN(CC(=O)O)CC2)C(=O)N[C@H](CCCCNC(=O)CCC(=O)NCCC[C@@H](NC(=O)CC[C@H](NC(=O)N[C@@H](CCC(=O)O)C(=O)O)C(=O)O)C(=O)O)C(=O)O)cc1)C(C)(C)C (some centres unmarked) [ligand 8, PSMA-SIFA4]
logD [3, 10]: -2.25 ± 0.07 | logD [3, 6]: -2.59 ± 0.04 | logD ([3]; pH 7.4, 177Lu-natF-L, n-octanol/PBS pH 7.4): -3.75 ± 0.06 | IC50 (PSMA; [7]): 2.5 ± 0.2 nM | IC50 (PSMA; [8]): 3.8 ± 0.7 nM | IC50 (PSMA; IC50, natLu-natF-L, 1 h, 4° C., mean ± SD): 3 ± 0.2 nM | Internalization (LNCaP cells; [11]): 130.3 ± 5.5% | Internalization (LNCaP cells; [9]): 98.2 ± 12.4% | Internalization (LNCaP cells; [12]): 165.9 ± 8.5% | HSA binding (Human Serum Albumin [4]; natGa-natF-L): 96.5% | HSA binding (Human Serum Albumin [4]; natLu-natF-L): 97.7%

Compound: CC(C)(C)[Si](F)(c1ccc(C(=O)NC[C@@H](C(=O)N[C@H](CCCCNC(=O)CCC(=O)NCCC[C@@H](NC(=O)CC[C@H](NC(=O)N[C@@H](CCC(=O)O)C(=O)O)C(=O)O)C(=O)O)C(=O)O)n2cc(CNC(=O)CCP(=O)(O)CN3CCN(CP(=O)(O)CCC(=O)O)CCN(CP(=O)(O)CCC(=O)O)CC3)nn2)cc1)C(C)(C)C [ligand 9, PSMA-SIFA5]
logD [3, 10]: -2.23 ± 0.07 | logD [3, 6]: -3.26 ± 0.06 | IC50 (PSMA; [7]): 4.3 ± 0.2 nM | IC50 (PSMA; [8]): 4.5 ± 0.3 nM | Internalization (LNCaP cells; [11]): 211.6 ± 5.3% | Internalization (LNCaP cells; [9]): 176.9 ± 11.7% | HSA binding (Human Serum Albumin [4]; natGa-natF-L): 95.1%

Compound: CC(C)(C)[Si](F)(c1ccc(C(=O)NCC(NC(=O)CN2CCN(CC(=O)O)CCN(CC(=O)O)CCN(CC(=O)O)CC2)C(=O)NC(CCCCNC(=O)CCC(=O)NCCCC(NC(=O)CC[C@H](NC(=O)N[C@@H](CCC(=O)O)C(=O)O)C(=O)O)C(=O)O)C(=O)O)cc1)C(C)(C)C (some centres unmarked) [ligand 10]
logD [3, 13]: -3.59 ± 0.05 | IC50 (PSMA; [14]): 2.8 ± 0.7 nM | Internalization (LNCaP cells; [12]): 184.1 ± 16% | HSA binding (Human Serum Albumin [4]; natLu-natF-L): 94.0%

Compound: CC(C)(C)[Si](F)(c1ccc(C(=O)NC(CNC(=O)CN2CCN(CC(=O)O)CCN(CC(=O)O)CCN(CC(=O)O)CC2)C(=O)NC(CCCCNC(=O)CCC(=O)NCCCC(NC(=O)CC[C@H](NC(=O)N[C@@H](CCC(=O)O)C(=O)O)C(=O)O)C(=O)O)C(=O)O)cc1)C(C)(C)C (some centres unmarked) [ligand 11]
logD [3, 13]: -3.62 ± 0.06 | IC50 (PSMA; [14]): 4.8 ± 0.7 nM | Internalization (LNCaP cells; [12]): 134.5 ± 18.5% | HSA binding (Human Serum Albumin [4]; natLu-natF-L): 92.4%

Compound: PSMA-1007 [reference compound]
IC50 (PSMA; references, read-out: IC50): 4.2 nM | Internalization (LNCaP cells; references): PSMA-1007 118 ± 4%

Compound: SIFA-Asn(AcNH-β-Glc)-PEG-Tyr^3-octreotate
log P(ow) [5]: 0.96

Compound: SIFA-Asn(AcNH-β-Glc)-Tyr^3-octreotate
log P(ow) [5]: 1.23
